According to paper PMC4986685 (Drug Design, Development and Therapy, 2016):

Key:
[1] = cited from earlier work
[2] = system: HbA1c; settings: 5 mg dose daily for 12 weeks, patients with type 2 DM with inadequate glycemic control with diet and exercise alone; cited from earlier work
[3] = system: active GLP-1, glucose, glucagon, insulin, and C-peptide; test: Oral glucose tolerance test; format: in vivo, human; settings: significantly smaller than baseline
[4] = Safety assessment; format: in vivo, human; settings: 36 healthy male subjects, 7-day treatments
[5] = cited from earlier work; remark: listed apart in the source

Compound	Half-life ([1]; after a single administration, doses between 1.25 and 60 mg, first-in-human study) [h]	Dose dependence of pharmacokinetics ([1]; doses between 1.25 and 60 mg, single administration)	Tolerability ([1]; first-in-human study, single administration)	Reduction of mean HbA1c [2] [% point]	AUC of glucose during OGTT relative to baseline [3]	Number of AEs possibly related to the study drug(s) ([4]; all AEs mild) [AEs]	Fraction eliminated by renal excretion [5]	Number of subjects with AEs possibly related to the study drug(s) [4] [subjects]
CC(C)(C)OC[C@@H]1C(=O)NCCN1C(=O)C[C@H](N)Cc1cc(F)c(F)cc1F [Evogliptin]	≥ 30	dose proportional pharmacokinetics	well tolerated	0.66	~ 0.87 fold	14		
CN(C)C(=N)N=C(N)N [Metformin, reference compound]							~ 90 % of absorbed metformin	24
